Data: US8889674B2, “Piperidine and pyrrolidine derivatives having NPY Y5 receptor antagonism” (Shionogi & Co., Ltd., priority 2009, dated 2014)

biological target: T1, mouse NPY Y5 receptor (Mus musculus, UniProt O70342); test: Affinity for NPY Y5 receptor: 125I peptide YY binding to membranes of CHO cells expressing mouse NPY Y5 receptor; conditions: mouse NPY Y5 receptor in CHO cell membranes, 125I peptide YY 60 pM, 25° C., 2 hours
T1 construct: expressed in transfected cells
T1 sequence (O70342 1-466): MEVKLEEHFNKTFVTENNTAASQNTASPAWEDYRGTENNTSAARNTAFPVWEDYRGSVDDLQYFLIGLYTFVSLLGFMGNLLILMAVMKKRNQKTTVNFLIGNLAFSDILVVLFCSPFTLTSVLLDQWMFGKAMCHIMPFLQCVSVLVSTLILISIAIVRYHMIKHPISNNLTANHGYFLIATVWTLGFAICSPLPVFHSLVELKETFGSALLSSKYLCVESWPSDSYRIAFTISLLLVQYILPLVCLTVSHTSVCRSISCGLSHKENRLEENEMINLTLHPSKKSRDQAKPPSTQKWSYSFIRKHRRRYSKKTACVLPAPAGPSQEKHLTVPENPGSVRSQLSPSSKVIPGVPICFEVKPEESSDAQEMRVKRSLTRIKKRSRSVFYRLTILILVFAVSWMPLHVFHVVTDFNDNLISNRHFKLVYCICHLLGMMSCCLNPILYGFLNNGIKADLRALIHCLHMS
Description: cDNA sequence encoding mouse NPY Y5 receptor (Biochem. Biophys. Acta 1328: 83-89, 1997) was cloned in the expression vector (pME18S, Takebe et al. Mol. Cell. Biol. 8, 466-472). The obtained expression vector was transfected into CHO cells as a host according to the instruction manual using Lipofectamine reagent (Trademark, Gibco BRL Co., Ltd.). The cells that stably express NPY Y5 receptor were obtained.
The membrane samples prepared from the CHO cells expressing NPY Y5 receptor, the compound of the invention and 30,000 cpm ^125I peptide YY (60 pM of final concentration: Amersham) were incubated in the assay buffer (20 mM HEPES-Hanks buffer containing 0.1% bovine serum albumin, pH 7.4) at 25° C. for 2 hours. The membrane samples were then filtered from the mixture through a glassfilter (GF/C) presoaked with 1% polyethyleneimine. After washing with 50 mM Tris-HCl buffer (pH 7.4), radioactivity retained on the filters was determined using gamma counter. Non-specific binding was determined in the presence of 200 nM of peptide YY and calculated the 50% inhibitory concentration (IC50 value) of the test compound for specific peptide YY binding (Inui, A. et al. Endocrinology 131, 2090-2096 (1992)).

IC50 [nM]	Structure (SMILES)
0.27	N#Cc1ccccc1C(=O)N1CCC(C(=O)Nc2ccnc(-c3ccccc3F)c2)CC1 [Ia-40]
0.2	N#Cc1ccc(F)cc1C(=O)N1CCC(C(=O)Nc2cccc(-c3ccccc3F)c2)CC1 [Ia-68]
0.25	N#Cc1ccccc1C(=O)N1CC[C@H](C(=O)Nc2ccn(-c3ccccc3F)n2)C1 [Ia-65]
0.59	N#Cc1ccccc1C(=O)N1CCC(C(=O)Nc2ccn(-c3ccccc3F)n2)CC1 [Ia-34]
0.31	N#Cc1ccccc1C(=O)N1CCC(C(=O)Nc2cccc(-c3ccccn3)c2)CC1 [Ia-41]
0.29	O=C(Nc1ccc(OC(F)F)cc1)C1CCN(C(=O)Cn2c(-c3ccccc3)noc2=O)CC1 [Ia-19]
0.39	N#Cc1ccccc1C(=O)N1CCC(C(=O)Nc2cccc(-c3nccs3)c2)CC1 [Ia-54]
1.77	CC(C)c1ccccc1C(=O)N1CCC(C(=O)Nc2ccc(OC(F)F)cc2)CC1 [Ia-62]
0.64	N#Cc1ccccc1CN1CCC(C(=O)Nc2cccc(-c3ccccc3F)c2)CC1 [Ia-99]
0.47	CC(=O)N1CCC[C@@H]1C(=O)N1CCC(C(=O)Nc2cccc(-c3ccccc3F)c2)CC1 [Ia-4]
0.38	N#Cc1ccccc1C(=O)N1CCC(C(=O)Nc2cccc(Oc3ccccc3)c2)CC1 [Ia-47]
0.22	CC(C)c1noc(=O)n1CC(=O)N1CCC(C(=O)Nc2cccc(-c3ccccc3F)c2)CC1 [Ia-22]
4.28	O=C(Nc1cccc(-c2ccccc2F)c1)C1CCN(C(=O)c2cc(Cl)ccn2)CC1 [Ia-113]
0.28	CC(=O)N1CCC[C@@H]1C(=O)N1CCC(c2nc3ccc(-c4ccccc4F)cc3[nH]2)CC1 [Ia-5]
0.97	O=C(Cn1cc(Cl)ccc1=O)N1CCC(c2cc3cc(-c4ccccn4)ccc3[nH]2)CC1 [Ia-29]
0.37	N#Cc1ccc(F)cc1C(=O)N1CCC(C(=O)Nc2cccc(-c3ncccn3)c2)CC1 [Ia-71]
0.23	CC(C)n1ccc2cc(NC(=O)C3CCN(C(=O)c4ccccc4C#N)CC3)ccc21 [Ia-57]

IC50 [nM]	Structure (SMILES)
1.56	C[C@@H]1CC(F)(F)CN1C(=O)N1CCC(C(=O)Nc2cccc(-c3ccccc3F)c2)CC1 [Ia-18]
1.43	CC(C)n1cccc1C(=O)N1CCC(C(=O)Nc2cccc(-c3ccccc3F)c2)CC1 [Ia-116]
0.12	N#Cc1ccccc1C(=O)N1CCC(c2nc(-c3ccc(Cl)c(Cl)c3)c[nH]2)CC1 [Ia-85]
0.3	N#Cc1ccccc1C(=O)N1CCC(c2cc(-c3ccc(Cl)c(Cl)c3)n[nH]2)CC1 [Ia-94]
0.26	N#Cc1ccccc1C(=O)N1CCC(C(=O)Nc2ccc(-c3ccccc3)cc2)CC1 [Ia-44]
0.48	CC(C)n1ccc2cc(NC(=O)C3CCN(C(=O)c4ccccc4C(F)(F)F)CC3)ccc21 [Ia-108]
0.19	N#Cc1ccccc1C(=O)N1CCC(c2nc3cc(-c4ccccc4F)ccc3[nH]2)CC1 [Ia-93]
2	O=C(Nc1cccc(-c2ccccc2F)c1)C1CCN(C(=O)c2ccccc2C(F)(F)F)CC1 [Ia-104]
0.26	N#Cc1ccccc1C(=O)N1CCC(C(=O)Nc2cccc(-c3ccccc3F)c2)CC1 [Ia-35]
0.96	O=C(Cn1cc(Cl)ccc1=O)N1CCC(c2cc3cc(OC(F)F)ccc3[nH]2)CC1 [Ia-28]
0.17	N#Cc1ccccc1C(=O)N1CCC(c2nc(-c3cccc(C(F)(F)F)c3)c[nH]2)CC1 [Ia-87]
0.35	Cc1[nH]c(C2CCN(C(=O)c3ccccc3C#N)CC2)nc1-c1ccccc1 [Ia-88]
0.33	N#Cc1ccccc1C(=O)N1CC[C@H](C(=O)Nc2cccc(-c3ccccc3F)c2)C1 [Ia-63]
0.28	N#Cc1ccccc1C(=O)N1CCC(C(=O)Nc2cccc(Oc3ccccc3F)c2)CC1 [Ia-52]
1.5	O=C(Nc1ccn(-c2ccccc2F)n1)[C@H]1CCN(C(=O)c2ccccc2C(F)(F)F)C1 [Ia-106]
0.18	N#Cc1ccc(F)cc1C(=O)N1CCC(C(=O)Nc2cccc(-c3ccccn3)c2)CC1 [Ia-70]
